Laboratory results from patent publication US10010560B2, “Small molecule HSP70 inhibitors” (THE TRUSTEES OF THE UNIVERSITY OF PENNSYLVANIA, priority 2014, dated 2018).

Key:
[1] = biological target: T1, ADP-HSP70 L394D (Homo sapiens, UniProt P0DMV8, E110D/L394D); assay: ITC, mutated full-length ADP-HSP70; assay type: binding; conditions: ADP-HSP70 mutant L394D
T1 construct: The full-length HSP70 and DnaK mutants were constructed by PCR-based site-directed mutagenesis; His6 (N); made in house; host or cells: E. coli BL21 Star (DE3)
From the text: (§1) The human stress-inducible HSP70 (residues 1-641 or 386-616 of SEQ ID NO: 2) and E. coli DnaK (residues 1-638, 389-607, or 393-507 of SEQ ID NO: 4) were cloned into the pET25 vector (EMD Millipore Chemicals, Inc., Billerica, Mass., USA) between the NdeI and XhoI restriction sites. The full-length HSP70 and DnaK mutants were constructed by PCR-based site-directed mutagenesis using the QuikChange™ Site-Directed Mutagenesis Kit (Agilent Technologies, Inc., Santa Clara, Calif., USA). All plasmid inserts were verified by DNA sequencing. All HSP70 and DnaK variants were produced with a N-terminal His6-tag in the E. coli BL21 Star (DE3) strain (Invitrogen catalog number C6010-03). The resulting strains were grown at 37° C. in LB medium containing 50 μg/mL of carbenicillin (Sigma-Aldrich Co., St. Louis, Mo., USA). At an OD600 about 0.3 to about 0.5, protein expression was induced with 0.5 mM isopropyl-β-D-thiogalactopyranoside (IPTG), and cells were subsequently grown at 25° C. for about 16 h. Cells were collected by centrifugation and resuspended in the Bugbuster® Master Mix (EMD Millipore Chemicals catalog number 71456-4), supplemented with protease inhibitors, 1 mM diethiothreitol (DTT) and 20 mM imidazole. The His6-tagged fusion proteins were isolated on Ni^2+-chelating resins (Ni-NTA Superflow, Qiagen catalog number 30410) by standard procedures. When necessary, size-exclusion chromatography on a Superdex® 200 or a Superose® 6 10/300 GL columns (GE Healthcare) analytical column pre-equilibrated with 1× Dulbecco's Phosphate Buffered Saline (DPBS—Invitrogen 14190-136), 1 mM Tris-HCl (pH 7.4) or 10 mM Tris-HCl (pH 7) was used as the final purification step. The purified DnaK proteins were dialyzed thoroughly against 1× DPBS with 5 mM DTT at 4° C., for crystallization trials involving the small molecule inhibitor PET-16. For isothermal titration calorimetry studies, all HSP70 and DnaK variants were dialyzed extensively against the buffers as noted below under the section entitled “Isothermal Titration calorimetry Studies”. The dialyzed proteins were subsequently microcentrifugated at 15,000×g for 5 min at 4° C. and aliquots of the soluble proteins were stored at −80° C.
(§2) All ITC experiments were performed using a MicroCal VP-ITC isothermal titration calorimeter (MicroCal). Both full-length HSP70 and DnaK proteins and DnaK (aa 393-507) proteins were prepared in 1 mM Tris-HCl (pH 7.4) buffer containing 3% dimethylsulfoxide (DMSO). The HSP70 (aa 386-616) protein was prepared in buffer containing 3% DMSO and 10 mM Tris-HCl, pH 7. The syringe was loaded with purified protein in either 1 mM Tris-HCl (pH 7.4) buffer containing 3% DMSO or 10 mM Tris-HCl (pH 7) buffer containing 3% DMSO. The sample cell of the calorimeter was loaded with PES, PET-16 or NRLLLTG (SEQ ID NO: 7) prepared in the same buffer. All solutions were degassed for 5 min.
(§3) The titrations involving the full-length purified proteins were performed at 25° C. with injection volumes of 12 μL and a spacing of 300 s. The titrations involving the purified HSP70 (aa 386-616) and DnaK (aa 393-507) were performed at 42° C. with injection volumes of 12 μL and a spacing of 300 s. Heat from the pre-injection was not used during fitting. The data were fit using a one-site binding model available in the Origin® ITC data analysis software (MicroCal Origin® V5.0, MicroCal Software, Northampton, Mass.). Error values obtained from the MicroCal Origin® V5.0 software were averaged and reported.
(§4) The information from crystal structure analysis pointed to particular amino acid residues as potential contact sites for interaction with PET-16. Single point mutants were thereby introduced in the context of a full-length DnaK protein, as well as at the corresponding residues within HSP70; these mutant proteins were analyzed by ITC for ability to bind to PET-16. The DnaK mutations included residues L392D, P396L, L399R, G482D, A503D and […]; those in HSP70 were L394D, P398L, L401R, G484D, N505D and D506A. […]

[2] = biological target: T2, ADP-HSP70 L401R (Homo sapiens, UniProt P0DMV8, E110D/L401R); assay: ITC, mutated full-length ADP-HSP70; assay type: binding; conditions: ADP-HSP70 mutant L401R
T2 construct: The full-length HSP70 and DnaK mutants were constructed by PCR-based site-directed mutagenesis; His6 (N); made in house; host or cells: E. coli BL21 Star (DE3)
From the text: as §1, §2, §3, §4

[3] = biological target: T3, ADP-HSP70 P398L (Homo sapiens, UniProt P0DMV8, E110D/P398L); assay: ITC, mutated full-length ADP-HSP70; assay type: binding; conditions: ADP-HSP70 mutant P398L
T3 construct: The full-length HSP70 and DnaK mutants were constructed by PCR-based site-directed mutagenesis; His6 (N); made in house; host or cells: E. coli BL21 Star (DE3)
From the text: as §1, §2, §3, §4

[4] = biological target: T4, ADP-HSP70 G484D (Homo sapiens, UniProt P0DMV8, E110D/G484D); assay: ITC, mutated full-length ADP-HSP70; assay type: binding; conditions: ADP-HSP70 mutant G484D
T4 construct: The full-length HSP70 and DnaK mutants were constructed by PCR-based site-directed mutagenesis; His6 (N); made in house; host or cells: E. coli BL21 Star (DE3)
From the text: as §1, §2, §3, §4

[5] = biological target: T5, ADP-HSP70 N505D (Homo sapiens, UniProt P0DMV8, E110D/N505D); assay: ITC, mutated full-length ADP-HSP70; assay type: binding; conditions: ADP-HSP70 mutant N505D
T5 construct: The full-length HSP70 and DnaK mutants were constructed by PCR-based site-directed mutagenesis; His6 (N); made in house; host or cells: E. coli BL21 Star (DE3)
From the text: as §1, §2, §3, §4

[6] = biological target: T6, ADP-HSP70 D506A (Homo sapiens, UniProt P0DMV8, D506A/E110D); assay: ITC, mutated full-length ADP-HSP70; assay type: binding; conditions: ADP-HSP70 mutant D506A
T6 construct: The full-length HSP70 and DnaK mutants were constructed by PCR-based site-directed mutagenesis; His6 (N); made in house; host or cells: E. coli BL21 Star (DE3)
From the text: as §1, §2, §3, §4

[7] = test system: BRAF(V600E); assay: Western blot of client proteins in soluble and detergent-insoluble fractions; assay type: cell-based; conditions: melanoma tumor cells, soluble fraction
Experimental: PET-16 promotes the loss of HSP90/HSP70 client proteins from the soluble fraction and the accumulation of some of these client proteins in the protein detergent-insoluble cellular fraction. Human melanoma cell lines (451 Lu, 1205 Lu and WM852) and mouse melanoma cell line (Yumm), as indicated, were treated with DMSO, PES or PET-16 for 24 hours. Cells were fractionated into detergent-soluble and detergent-insoluble preparations and assayed by Western blot (WB) analysis for the proteins indicated. […] The expression of many of these proteins is reduced in the soluble cell fractions, and often the abundance increases in the detergent insoluble fractions. This is indicative of loss of function of the client proteins.
Western blotting, immunoprecipitations and B-PES pull down assays were performed as described in Leu 2009 and Leu 2011. Preparation of biotin-conjugated PES was described in Leu 2009 and Leu 2011; Balaburski, 2013. Liquid chromatography-tandem mass spectrometry was performed by the Genomics Institute and Abramson Cancer Center Proteomics Core Facility at the Perelman School of Medicine, University of Pennsylvania. Electron microscopy (EM) and EM imaging were performed by The Electron Microscopy Resource Laboratory, Biomedical Research Core Facilities, at the Perelman School of Medicine, University of Pennsylvania.

T3 sequence (P0DMV8 whole entry E110D/P398L): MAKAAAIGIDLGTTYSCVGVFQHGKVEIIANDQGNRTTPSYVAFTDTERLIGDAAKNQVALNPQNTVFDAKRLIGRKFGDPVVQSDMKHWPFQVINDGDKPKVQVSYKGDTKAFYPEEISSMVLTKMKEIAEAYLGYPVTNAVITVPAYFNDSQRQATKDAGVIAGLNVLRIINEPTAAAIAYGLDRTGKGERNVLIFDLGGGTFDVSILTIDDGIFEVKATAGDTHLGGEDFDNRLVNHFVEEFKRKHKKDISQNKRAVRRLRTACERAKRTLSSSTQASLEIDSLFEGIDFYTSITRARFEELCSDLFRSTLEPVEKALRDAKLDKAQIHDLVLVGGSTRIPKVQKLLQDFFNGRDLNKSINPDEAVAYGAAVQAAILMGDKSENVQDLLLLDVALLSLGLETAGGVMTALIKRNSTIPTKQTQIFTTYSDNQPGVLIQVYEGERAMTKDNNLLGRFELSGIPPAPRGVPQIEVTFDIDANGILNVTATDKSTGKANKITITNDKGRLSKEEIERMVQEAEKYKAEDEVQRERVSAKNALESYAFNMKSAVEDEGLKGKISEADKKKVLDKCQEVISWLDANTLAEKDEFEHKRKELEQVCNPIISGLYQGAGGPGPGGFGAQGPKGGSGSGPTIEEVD
T6 sequence (P0DMV8 whole entry E110D/D506A): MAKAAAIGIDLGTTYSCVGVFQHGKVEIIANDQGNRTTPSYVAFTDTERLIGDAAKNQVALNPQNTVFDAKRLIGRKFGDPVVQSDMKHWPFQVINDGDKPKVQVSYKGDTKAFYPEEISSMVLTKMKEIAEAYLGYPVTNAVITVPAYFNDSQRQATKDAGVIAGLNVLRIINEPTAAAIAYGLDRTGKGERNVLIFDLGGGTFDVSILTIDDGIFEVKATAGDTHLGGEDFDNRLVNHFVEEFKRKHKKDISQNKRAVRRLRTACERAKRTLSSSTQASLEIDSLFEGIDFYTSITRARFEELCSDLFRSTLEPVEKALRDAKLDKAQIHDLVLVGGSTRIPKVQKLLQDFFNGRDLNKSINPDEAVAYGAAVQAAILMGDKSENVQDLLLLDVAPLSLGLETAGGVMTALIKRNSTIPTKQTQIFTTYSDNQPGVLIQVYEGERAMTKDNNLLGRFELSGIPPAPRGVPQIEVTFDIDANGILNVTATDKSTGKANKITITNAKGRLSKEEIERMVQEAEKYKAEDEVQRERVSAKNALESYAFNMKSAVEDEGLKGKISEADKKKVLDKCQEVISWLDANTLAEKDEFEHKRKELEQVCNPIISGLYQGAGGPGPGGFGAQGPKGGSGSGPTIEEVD
T5 sequence (P0DMV8 whole entry E110D/N505D): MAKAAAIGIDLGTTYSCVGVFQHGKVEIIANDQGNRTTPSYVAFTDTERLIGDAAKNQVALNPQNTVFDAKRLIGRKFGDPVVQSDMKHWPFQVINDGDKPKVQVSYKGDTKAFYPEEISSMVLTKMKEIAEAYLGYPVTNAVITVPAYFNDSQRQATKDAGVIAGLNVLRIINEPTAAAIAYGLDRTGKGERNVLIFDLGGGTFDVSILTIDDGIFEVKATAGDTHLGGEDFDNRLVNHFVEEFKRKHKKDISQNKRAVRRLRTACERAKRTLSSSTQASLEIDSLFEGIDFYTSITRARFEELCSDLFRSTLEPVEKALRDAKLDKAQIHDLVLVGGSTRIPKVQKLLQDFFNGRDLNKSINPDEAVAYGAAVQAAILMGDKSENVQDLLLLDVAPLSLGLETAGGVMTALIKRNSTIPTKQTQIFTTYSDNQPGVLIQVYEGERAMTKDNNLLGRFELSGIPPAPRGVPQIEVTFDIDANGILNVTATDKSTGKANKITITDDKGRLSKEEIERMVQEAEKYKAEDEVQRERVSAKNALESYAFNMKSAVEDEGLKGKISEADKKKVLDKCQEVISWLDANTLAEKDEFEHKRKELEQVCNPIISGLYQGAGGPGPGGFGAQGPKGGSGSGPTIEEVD
T1 sequence (P0DMV8 whole entry E110D/L394D): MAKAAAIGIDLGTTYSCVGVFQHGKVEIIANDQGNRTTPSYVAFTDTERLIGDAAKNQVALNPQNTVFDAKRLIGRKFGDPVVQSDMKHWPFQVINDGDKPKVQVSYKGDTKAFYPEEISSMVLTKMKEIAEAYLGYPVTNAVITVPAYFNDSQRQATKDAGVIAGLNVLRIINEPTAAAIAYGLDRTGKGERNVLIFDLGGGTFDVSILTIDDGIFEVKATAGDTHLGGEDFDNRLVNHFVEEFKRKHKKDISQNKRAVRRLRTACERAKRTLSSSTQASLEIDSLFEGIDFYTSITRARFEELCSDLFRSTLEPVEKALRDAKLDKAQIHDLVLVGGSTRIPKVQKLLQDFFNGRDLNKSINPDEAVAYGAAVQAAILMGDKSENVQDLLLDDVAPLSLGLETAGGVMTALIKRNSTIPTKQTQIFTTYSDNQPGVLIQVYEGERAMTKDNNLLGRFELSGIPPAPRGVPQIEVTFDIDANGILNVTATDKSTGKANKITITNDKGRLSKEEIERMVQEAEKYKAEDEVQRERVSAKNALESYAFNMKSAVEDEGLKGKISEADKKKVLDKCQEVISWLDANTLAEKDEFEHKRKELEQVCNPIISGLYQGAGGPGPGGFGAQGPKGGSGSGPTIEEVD
T2 sequence (P0DMV8 whole entry E110D/L401R): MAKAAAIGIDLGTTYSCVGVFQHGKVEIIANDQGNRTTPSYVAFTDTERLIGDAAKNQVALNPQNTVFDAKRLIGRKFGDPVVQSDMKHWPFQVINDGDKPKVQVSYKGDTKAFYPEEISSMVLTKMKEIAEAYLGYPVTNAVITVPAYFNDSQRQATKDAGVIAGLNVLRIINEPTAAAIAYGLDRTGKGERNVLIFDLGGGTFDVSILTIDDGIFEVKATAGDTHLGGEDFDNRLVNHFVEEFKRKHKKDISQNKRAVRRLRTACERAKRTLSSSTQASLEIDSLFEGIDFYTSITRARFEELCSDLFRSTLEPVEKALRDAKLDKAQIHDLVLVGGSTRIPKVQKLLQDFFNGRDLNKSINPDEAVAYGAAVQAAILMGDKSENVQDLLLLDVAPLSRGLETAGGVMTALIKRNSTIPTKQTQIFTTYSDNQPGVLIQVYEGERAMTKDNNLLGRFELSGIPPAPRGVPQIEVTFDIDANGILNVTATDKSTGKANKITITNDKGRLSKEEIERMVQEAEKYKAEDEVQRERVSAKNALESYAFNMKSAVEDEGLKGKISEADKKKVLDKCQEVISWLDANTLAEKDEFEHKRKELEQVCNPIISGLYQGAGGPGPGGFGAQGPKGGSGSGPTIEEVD
T4 sequence (P0DMV8 whole entry E110D/G484D): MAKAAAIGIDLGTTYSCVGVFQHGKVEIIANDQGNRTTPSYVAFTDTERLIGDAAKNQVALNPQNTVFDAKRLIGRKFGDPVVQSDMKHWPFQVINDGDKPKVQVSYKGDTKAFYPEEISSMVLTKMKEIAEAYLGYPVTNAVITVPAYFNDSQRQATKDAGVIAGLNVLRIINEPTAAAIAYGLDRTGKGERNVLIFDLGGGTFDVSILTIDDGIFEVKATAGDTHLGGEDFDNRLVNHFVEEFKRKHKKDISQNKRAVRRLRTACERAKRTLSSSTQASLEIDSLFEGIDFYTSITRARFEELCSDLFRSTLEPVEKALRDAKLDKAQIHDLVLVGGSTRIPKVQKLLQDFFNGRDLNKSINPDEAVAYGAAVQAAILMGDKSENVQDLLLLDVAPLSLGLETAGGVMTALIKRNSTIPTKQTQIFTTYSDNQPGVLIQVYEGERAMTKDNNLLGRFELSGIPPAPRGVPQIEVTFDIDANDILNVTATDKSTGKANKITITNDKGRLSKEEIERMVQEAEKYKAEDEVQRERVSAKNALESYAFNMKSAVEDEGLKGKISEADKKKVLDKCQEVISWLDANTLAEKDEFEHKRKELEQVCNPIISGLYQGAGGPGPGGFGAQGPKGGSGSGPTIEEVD

## C(#C[P+](c1ccccc1)(c1ccccc1)c1ccccc1)c1ccccc1.[Br-] [PET-16, triphenyl(phenylethynyl)phosphonium bromide]
[1]
  Kd: 30.8 ± 0.6 µM
[2]
  Kd: 43.2 ± 9.9 µM
[3]
  Kd: 23.4 ± 1.2 µM
[4]
  Kd: 98.8 ± 5.1 µM
[5]
  Kd: 147 ± 6.5 µM
[6]
  Kd: 112 ± 3.8 µM
[7]
  BRAF(V600E) protein abundance: reduction
